Where “and” joins values, the source holds several entries; their conditions need not be identical. Equal values may be shown once. Positions of bridges follow the written chain, without caps; N, C: chain ends. No end group written: not given here.
Experiments:
[1] = test system: ex vivo instilled rat lung; assay: Ex vivo rat flooded lung, model of hydrostatic edema; conditions: for clearing alveolar fluid content ex vivo: after intratracheal instillation
Procedure: In this model edema is induced by instillating 2 ml of 0.9% NaCl solution intratracheally. Alternatively, edema formation can be modulated by varying the height of the venous outflow and the perfusion buffer containing reservoir, or alternatively by varying the time the lung is exposed to the elevated pressure. […] The clearance of alveolar fluid from the lung is calculated by means of measuring the concentration of HSA, which is added to the instillate over time. Alternatively, the over time weight loss as a measure of edema resorption (high weight loss is high liquid clearance), of the artificially instilled lung can be measured. The lung tidal volume, compliance and weight are monitored continuously during the experiment. At the end of the experiment bronchoalveolar fluid and supernatant of lung homogenate is taken for measurement of inflammatory mediators.
The lungs of female Wistar rats (weight 200–250 g; Harlan-Winkelmann, Borchen, Germany) are prepared after terminal i.p. anesthesia by 160 mg/kg pentobarbitural —Na (Merial Ltd, Halbermoos, Germany) and perfused as described by Uhlig and Wolin (1994), and by Uhlig and von Bethmann (1997). All equipment is obtained from Hugo Sachs Electronics (March-Hugstetten, Germany). […] As perfusion medium, a Krebs-Henseleit buffer (38° C.) containing 2% bovine serum albumin (Fraction V, Scrva. Heidelberg, Germany), 0.1% glucose (Riedel-de-Haën Inc., Seelze, Germany), and 0.3% HEPES (ICN Biomedicals Inc., Ohio, USA) is used. The total amount of recirculating buffer is 100 ml. The lungs are suspended by the trachea and ventilated by negative pressure ventilation (inspiratory pressure: −7 cm H2O, expiratory pressure: −2 cm H2O) with 80 breaths per minute resulting in a tidal volume of approximately 2 ml. Every 5 minutes, a deep inspiratory breath (−20 cm H2O) is performed. Artificial thorax chamber pressure is measured with a differential pressure transducer (Validyne DP 45-14), and an air flow velocity with a pneumotachograh tube (Fleisch Type 0000) connected to a differential pressure transducer (Validyne DP 45-15). The perfusate flow (Narcomatic RT-500) and the arterial and venous pressure (Statham P23BB) are continuously monitored. The pH of the perfusate before entering the lung is kept at 7.25 to 7.35 by automatic bubbling of the buffer with CO2 as soon as the pH exceeds this range. A weight transducer is integrated into the chamber lid which allows the continuous assessment of lung weight. Data are recorded on a Pentium II computer using the Mathlab Sofware package (Mathworks, Inc., Nattick Mass., USA). For lung mechanics, the data are analyzed by applying the following formula: P=1/C*VT+RLdV/dT
Where P is chamber pressure, C pulmonary compliance, VT tidal volume, and RL airway resistance. All lung physiology parameters were normalized to time point 0, i.e. after the end of the preconditioning perfusion of 40 minutes.

[2] = test system: left lung of Fischer (F344) rats; assay: Rat model of lung reperfusion injury (warm ischemia and reperfusion); type: in vivo; conditions: for pO2 blood gas levels: 6 to 90 minutes of LLOT, cyclic hum Ltip 500 μg/kg to 5 μg/kg, hum mut Tip 500 μg/kg; for gain in pO2 blood gas: iv application
Procedure: In a modification of the model of Ohno et al. (1993) male Fischer (F344) rats (200–250 g) undergo clamping of the left pulmonary artery, pulmonary vein and main bronchus for 36 minutes of warm ischemia. After reperfusion of the left lung, the right lung is occluded to assess the function of the left lung for 90 minutes. The peptide is given at 3 minutes after reperfusion by either instillation or intravenous injection via the subclavian vein.
• 1. Anaesthesia of the rat in a glass chamber, 4% Halothane and Oxygen 4/min. • 2. Intubation of the rat with a 1.8 mm catheter, • 3. Shaving the fur on the abdomen and left side of the animal. • 4. Ventilation via the tracheal tube 100/min, 2.5 ml 20% oxygen, Harvard Rodent Ventilator (Harvard Apparatus, South Natick, Mass.), PEEP 5 mm H2O. • 5. A left thoracotomy is carried out in the in 4th intercostal space. • 6. Dissection of the left lung hilar region. • 7. Microvascular clips are placed around the left pulmonary artery (PA), Pulmonary vein (PV) and left main bronchus (B) to induce warm ischemia of the left lung. Small circulation is still ongoing through the right lung. This is the start of the Warm Ischemia Time (WIT). • 8. Anaesthaesia is maintained with 2% Halothane, 40% Oxygen. • 9. A provisory Z suture is made to temporary close the thoracotomy and a gaze sponge is put on the animal to decrease warmth loss. • 10. Near the end of the WIT, a thoracophrenolaparatomy in the midline with thorough electrocaterisation. (two peans on the sternum). • 11. Putting 2-0 Softsilk on the trachea around the intubation tube. • 12. Dissection of the right hilar elements. • 13. Taking away microvascular clips from the left hilar elements. End of WIT of the left lung after 36 minutes. • 14. Putting microvascular clips on right PA and B. Small circulation only through left lung. Start developing of left oedema time (LLOT). • 15. After 3 minutes of LLOT: instillation of the drug in 0.5 ml of 0.9% saline solution (Baxter) or injection of the drug in 0.25–0.3 ml of 0.9% saline through the subclavian vein. • 16. After 6, 30, 60 and 90 minutes of LLOT, puncture of the Aortic Arch (AA) with needle for blood gas analysis in Radiometer ABL 700 Serie, (Denmark). • 17. After each puncture the AA puncture hole is pressed with a cotton swab. • 18. Blood gas analysis is taken every time from AA (the heart rate should be over 60). • 19. After the last blood gas analysis (90 minutes), both lungs are flushed via the PA with 20 ml of 0.9% saline at a pressure of 20 cm H2O. […] The heart-lung block is excised for storage under formaline or in the freezer awaiting immunohistopathological analysis. Alternatively, the lung can be excised without flushing to assess wet to dry ratio's. Results (FIG. 7)

isolated rat lungs [3] = assay: Isolated blood perfused flooded rat lung (weight, lung mechanics, PV curves, histology)
Procedure: (§1) Rats. For the ex vivo experiments, 31 Sprague-Dawley rats (300 to 350 g) were tracheotomized and mechanically ventilated (40% oxygen in air) under isoflurane anesthesia. The experimental protocol was reviewed and approved by the Ethics Committee for Animal Research and by the Veterinary Office of our institution. The femoral vessels were cannulated for blood sampling, fluid replacement, and continuous arterial blood pressure monitoring. Following anticoagulation (1.5 IU/g i.v. heparin), 20 ml of blood were withdrawn and replaced by an equal volume of dextran-40 (Macrodex 10% in normosaline) to serve as priming volume for the isolated perfusion circuit. The heart-lung block was prepared as described by Ma et al., 2000, weighed and assigned to one of four groups. […] The lungs were suspended, mechanically ventilated, and perfused at constant pressure with autologous blood as described by Ma et al., 2000.
(§2) An inspiratory and expiratory quasi-static pressure-volume (PV) curve was performed at the end of the 2-hour reperfusion period by inflating and then deflating the lungs at a constant rate (0.3 ml/sec) using an automated infusion pump. A sigh was applied in all groups every 15 minutes to minimize atelectasis formation. The blood pH was maintained between 7.3 and 7.5 and, if necessary, corrected with sodium bicarbonate 8.4% or a change of the inspired CO2 as required by the blood gas analysis. Every 30 minutes, a blood sample was collected for blood gas analysis as well as for hematocrit and electrolyte concentration.
(§3) Inclusion criteria. Immediately following the start of reperfusion, the preparation had to fulfill three technical inclusion criteria: • 1) left atrial pressure (LAP) 5-10 mmHg; • 2) peak airway pressure (AWP) <15 cmH2O; and • 3) pulmonary blood flow (PBF) >10 ml/min. […] The included lungs were then flooded with gentle intratracheal instillation of 2 ml normal saline and the recorded variables measured for 2 subsequent hours.
(§4) Histological analysis. Random lung samples were fixed for light and electron microscopy and analyzed by pathologists blinded to the lung's protocol group assignment.

isolated rat lungs [4] = test system: isolated rat lungs
Procedure: as §1, §2, §3, §4

[5] = test system: transplanted left lung of rats; assay: Single left lung transplantation in syngeneic rats; type: in vivo, rat; conditions: 24 hours after transplantation; donor lung pre-treated by intratracheal application, 500 μg/kg
Procedure: Female Wistar of Fischer rats or weighting 250 to 260 g undergo orthotopic single left lung transplantation after 20 hours cold ischemia using a cuff technique for the vessel anastomoses and a conventional running suture for the bronchial anastomosis.
Donor procedure: Animals are anesthetized by intraperitoneal administration of pentobarbital (50 mg/kg) and heparinized (500 I.U./kg). A tracheotomy is performed and the animals are ventilated trough a cannula with 100% O2 by a Harvard rodent ventilator (Harvard apparatus, South Natick, Mass.) at a tidal volume of 10 ml/kg. […] Both lungs are flushed with 20 cc of low-potassium dextran-solution (LPD) (Perfadex®, Kabi Pharmacia, Sweden) at a pressure of 20 cm H2O. The trachea is then tied in end-inspiration. After removal of the heart-lung block, 14 gauge cuffs are placed around the pulmonary artery and vein, and the vessels are inverted and tied onto the cuff. The lung is stored in LPD solution at 4° C. until implantation.
Recipient procedure: Transplantation was performed after 20 hours of cold ischemia (4° C.). The recipient is anesthetized by breathing Halothane in a glass chamber, intubated, and anesthesia is maintained with Halothane 2%. A left lateral thoracotomy is performed in the 4th intercostal space. The left hilium is dissected. […]

Sequence: CGQREAPAGAAAKPWYC (disulfide 1-17) [hum mut Tip, reference compound]
- clearing alveolar fluid content ex vivo ([1]; summary in words): inactive
- pO2 blood gas levels [2]: followed completely the values seen in the control animals
- gain in pO2 blood gas [2]: no effect

Sequence: CGPKDTPEGAELKPWYC (disulfide 1-17; listed as Mus musculus) [cyclic mu Ltip]
- lung weight change over time after alveolar flooding (isolated rat lungs [3]; 2 hours reperfusion after 2 ml saline, TNF 5 μg, peptides 1 mg): progressively decreased in weight
- lung mechanics (peak AWP, Cdyn, Raw) after alveolar flooding (isolated rat lungs [3]; 2 hours reperfusion, TNF 5 μg, peptides 1 mg): progressive improvement in lung mechanics
- fraction of intratracheal instilled saline lost (isolated rat lungs [3]; at 2 hours, 1 mg): approximately half
- inflation volume at lower inflection point (isolated rat lungs [3]; end of 2-hour reperfusion, 1 mg): 3.4 ± 0.9 mL
- lower inflection point of inspiratory quasi-static PV curve (isolated rat lungs [3]; end of 2-hour reperfusion, TNF 5 μg, peptide 1 mg): 17.2±1.6 cmH2O
- leukocyte infiltration (lung histology) (isolated rat lungs [4]): did not show this increased leukocyte infiltration

Sequence: CGQRETPEGAEAKPWYC [cyclic hum Ltip]
- clearing alveolar fluid content ex vivo ([1]; summary in words): capable of clearing alveolar fluid content
- activity in fluid clearance ([1]; measured 80 minutes after instillation, summary in words): equally active
- Weight loss of ex vivo instilled rat lung over 80 min ([1]; synthetic peptide 1000 μg/lung): 658 mg and 585 mg and 663 mg and 648 mg and 575 mg and 931 mg and 900 mg and 918 mg
- Weight loss of ex vivo instilled rat lung over 100 min ([1]; synthetic peptide 1000 μg/lung): 1009 mg and 744 mg and 685 mg and 663 mg and 758 mg and 694 mg and 1004 mg and 1000 mg
- pO2 [5]: 395+/−95 mmHg
- pCO2 levels ([2]; 500 μg/kg to 5 μg/kg, data not shown): lower pCO2 levels
- pO2 blood gas levels [2]: significantly much better pO2 levels
- gain in pO2 blood gas [2]: significantly increased gain in pO2 blood gas

From patent publication US7258861B2, “TNF-derived peptides for use in treating oedema” (Innogenetics N.V., priority 2001, dated 2007)
